Experimental data: ChEMBL document CHEMBL1132531, “From histamine to imidazolylalkyl-sulfonamides: the design of a novel series of histamine H3-receptor antagonists” (Bioorg Med Chem Lett, 1999)

Key:
Histamine H3 receptor [1] = biological target: T1, Histamine H3 receptor (Cavia porcellus, UniProt Q9JI35); experiment: Binding affinity towards histamine H3 receptor using [3H](R)-alpha-methylhistamine as radioligand in guinea pig ileum LMMP homogenates; type: tissue-based
Histamine H3 receptor [2] = biological target: T1, Histamine H3 receptor; experiment: Binding affinity towards histamine H3 receptor using [3H](R)-alpha-methylhistamine as radioligand in guinea pig cortical homogenates
[3] = biological target: Histamine H3 receptor (Cavia porcellus) (UniProt Q9JI35); experiment: Compound was tested for inhibition of histamine H3-receptor mediated neurogenic contractions in the isolated guinea pig ileum assay; Full agonist; type: functional, tissue-based
Histamine H3 receptor (Cavia porcellus), sequence (Q9JI35 whole entry): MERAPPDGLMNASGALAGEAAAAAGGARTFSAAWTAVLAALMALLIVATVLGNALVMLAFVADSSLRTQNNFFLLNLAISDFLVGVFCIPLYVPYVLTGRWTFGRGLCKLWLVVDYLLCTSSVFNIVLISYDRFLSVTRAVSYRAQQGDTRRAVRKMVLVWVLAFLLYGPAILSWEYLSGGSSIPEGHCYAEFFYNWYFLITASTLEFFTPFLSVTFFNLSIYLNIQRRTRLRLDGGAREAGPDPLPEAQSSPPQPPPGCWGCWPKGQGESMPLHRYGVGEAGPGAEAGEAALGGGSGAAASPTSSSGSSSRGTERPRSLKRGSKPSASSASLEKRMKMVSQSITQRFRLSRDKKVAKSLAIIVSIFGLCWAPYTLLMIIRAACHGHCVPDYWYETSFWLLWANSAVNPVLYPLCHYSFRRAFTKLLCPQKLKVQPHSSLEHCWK

[4] = biological target: Histamine H3 receptor (Cavia porcellus) (UniProt Q9JI35); experiment: Inhibition of H3-receptor mediated neurogenic contractions in the isolated guinea pig ileum assay; type: functional, tissue-based
[5] = biological target: Histamine H3 receptor (Cavia porcellus) (UniProt Q9JI35); experiment: Compound was tested for inhibition of histamine H3-receptor mediated neurogenic contractions in the isolated guinea pig ileum assay; Partial agonist; type: functional, tissue-based

T1 sequence (Q9JI35 whole entry): as above

Compound | Ki (Histamine H3 receptor [1]) [nM] | Ki (Histamine H3 receptor [2]) [nM] | p[A]50 [3] | pKB [4] | pKB [5]
C[C@@H](N)Cc1c[nH]cn1 | 0.151 | 0.0851 | 7.94 |  | 
O=S(=O)(NCCCCCc1c[nH]cn1)c1ccc2ccccc2c1 |  | 14.8 |  | 6.96 | 
O=S(=O)(NCCCCCCc1c[nH]cn1)c1ccc2ccccc2c1 |  | 25.1 |  | 7.11 | 
NCCc1c[nH]cn1 [HISTAMINE] | 10.5 | 0.145 | 7.15 |  | 
O=S(=O)(Cc1ccc2ccccc2c1)NCCc1c[nH]cn1 | 1150 | 490 |  | < 5 | 
O=S(=O)(NCCCCCCCCc1c[nH]cn1)c1ccc2ccccc2c1 |  |  |  | 6.62 | 
O=S(=O)(NCCCCc1c[nH]cn1)c1ccc2ccccc2c1 |  | 22.9 |  | 6.81 | 
CS(=O)(=O)NCCc1c[nH]cn1 | 186 |  |  |  | 4.77
O=S(=O)(NCCCCCCCCCCc1c[nH]cn1)c1ccc2ccccc2c1 |  | 138 |  | 5.79 | 
O=S(=O)(NCCCCCCCc1c[nH]cn1)c1ccc2ccccc2c1 |  | 50.1 |  | 6.88 | 
O=S(=O)(NCCCc1c[nH]cn1)c1ccc2ccccc2c1 |  | 14.1 |  | 5.93 | 
O=S(=O)(CCC1CCCCC1)NCCc1c[nH]cn1 |  | 16.2 |  | 5.87 | 
O=S(=O)(NCCc1c[nH]cn1)c1ccc2ccccc2c1 |  |  |  | 6.7 | 
O=S(=O)(/C=C/c1ccccc1)NCCc1c[nH]cn1 |  | 115 |  | < 5.5 | 
C[C@H](Cc1c[nH]cn1)NS(=O)(=O)c1ccc2ccccc2c1 |  | 1.02 | 6.02 |  | 
O=S(=O)(Cc1ccccc1)NCCc1c[nH]cn1 |  |  |  | < 5 | 
